# Results reported in US20260335294A1, “TREATING CONGENITAL DISORDERS OF GLYCOSYLATION” (Mayo Foundation for Medical Education and Research, priority 2022, published 2026).
# How the values were obtained:
# PMM2-CDG patients [1] = test: Nijmegen Pediatric CDG Rating Scale (NPCRS) in patients on epalrestat; assay type: in vivo, human
# Text: (§1) The primary objective of the study was to assess the efficacy and safety of epalrestat treatment in 3 PMM2-CDG pediatric subjects prior to a planned Phase III clinical trial (Oral epalrestat therapy in Pediatric Subjects with PMM2-CDG, NCT04925960). The secondary objective was to assess the ability of epalrestat to improve clinically relevant aspects of PMM2-CDG such as increased urine polyols (sorbitol, mannitol), abnormal glycosylation (carbohydrate deficient transferrin), abnormal coagulation (ATIII=antithrombin III), impaired liver function (ALT=Alanine Transaminase, AST=Aspartate Transaminase), neurologic function (Brief Ataxia Rating Scale=BARS), severity of phenotype (Nijmegen Pediatric CDG Rating Scale=NPCRS). The ability of epalrestat to inhibit polyol production was monitored by evaluating urine polyol levels (sorbitol, mannitol), which are elevated in PMM2-CDG. Next, carbohydrate deficient transferrin, which is abnormal in PMM2-CDG, was evaluated in order to assess improvement of glycosylation following epalrestat treatment. CDT mono-oligo/dioligo ratio and a-oligo/dioligo ratio are used to evaluate glycosylation abnormalities. Transferrin normally occurs with two glycan chains (di-oligo). In the case of glycosylation abnormalities, glycan chains are missing (A-oligo transferrin has no glycan chains, mono-oligo has one glycan chain, di-oligo has two glycan chains). The higher ratio of a-oligo/di-oligo and mono-oligo/di-oligo indicate glycosylation abnormalities are present. Therefore, improvement in a-oligo/di-oligo and mono-oligo/di-oligo ratios can be used to monitor improvement or worsening of glycosylation status. Changes in the liver enzymes AST, ALT, which are frequently elevated in PMM2-CDG, were monitored both as part of a safety study and as part of monitoring clinical improvement in coagulation. Neurologic improvement was assessed by modified BARS scores in 2 patients (3rd patient was not eligible for the test due to age at the start of the trial). NPCRS was assessed at every visit to assess changes in the severity of the patients' phenotype. Additionally, the frequency of adverse events, changes in vital signs, complete blood count, and changes in BMI were monitored.
# (§2) Two patients were started on epalrestat on single patient investigational new drug (IND) (P5 IRB: 19-010017; IND #145262; P6 Protocol PMM2-CDG-001/A). Epalrestat was initiated on the parents' own initiative in the third patient (P7). Two patients were in their second year of epalrestat treatment, while the third, was in the 3rd year of treatment. Physical, neurological, and biochemical examinations were performed in 3 PMM2-CDG patients at baseline, and at every three months after the start of the epalrestat treatment. Patients underwent NPCRS phenotype severity assessment and biological sampling at every visit. Epalrestat (Ono Pharmaceuticals, Osaka, Japan) was taken orally 3 times per day (TID) before meals in a divided dose, with dosage escalation throughout the treatment. The pharmacological profile of epalrestat was as described elsewhere (Ligezka et al, Ann. Neurol., 90(6):887-900 (2021)). The starting dosage in P5 and P6 was 0.8 mg/kg/day, while P7 was started on 0.5 mg/kg/day due to their young age. P7 dosage was increased to 0.8 mg/day after a month, once safety was established. Blood and urine samples were collected routinely. Urine polyols, carbohydrate deficient transferrin (CDT), anti-thrombin III (ATIII), liver enzymes (ALT, AST), and complete blood count (CBC) were performed. Modified Brief Ataxia Rating Scale was used to assess ataxia in the 2 patients (P5, P6; P7 was not eligible for the test due to age). The modified BARS scale included Archimedes spiral test, but not the abnormalities of the ocular pursuit system and the scale range was 0-54. Goal attainment scale (GAS) was administered as described per study protocol (ClinicalTrials.gov Identifier: NCT04199000). […]
# PMM2-CDG = settings: Ligezka et al 2021; cited from earlier work
# pmm2 mutant zebrafish = test: Zebrabox motility assay; assay type: in vivo
# Procedure: Zebrabox Motility Assay Progeny of a pmm2^sa1050/+ (pmm2^m/+) mating were collected and raised in the light following standard protocols. […] Embryos were also fed a small number of rotifers daily once behavioral readings were completed. Locomotor activity (swim paths, speeds) was monitored for ten-minute intervals from 6-10 dpf using the Zebrabox System (ViewPoint Inc., Toronto, Canada). Data was analyzed and graphed using GraphPad Prism.
# Then, both wt and pmm2 mutant zebrafish were treated with 20 µM daily epalrestat, which increased the distance swam and the number of swim events initiated in the pmm2 mutant zebrafish (FIG. 5 C,D). The improvement was most significant at 6 dpf and 7 dpf (FIG. 5 C,D).
# [2] = test system: patient fibroblasts and healthy controls; test: Quantification of NADPH and NADP; assay type: cell-based, human; settings: 10 μM, 24 h
# Procedure: Fibroblasts from three patient fibroblasts (P2, P4, P5) and two healthy controls were plated on day 1. The next day medium was changed. The cells were grown in the presence and absence of […] epalrestat for another 24 hours. The medium was then removed, cells were washed with cold saline solution (0.9% NaCl) and 250 μL of extraction buffer (50% MeOH, 30% acetonitrile, 20% H2O Tris-HCl pH 7.6) was added to the cells. The metabolites were precipitated overnight at −80 °C, samples were centrifugated at 20,000 rpm, 20 minutes, 4 °C, and supernatant was transferred to a fresh vial. Pellets were used for determination of protein concentration. Supernatant containing metabolites was analyzed by LC/MS less than 24 hours after the initial collection to avoid degradation of NADPH into NADP. Relative abundance of NADP and NADPH was obtained. […]
# PMM2-CDG patients [3] = test: Anti-thrombin III (ATIII) in patients on epalrestat; assay type: in vivo, human; settings: for AT III: C: 0.80-1.30
# Text: as §1
# as §2, with “routinely.” for “routinely. Urine polyols, carbohydrate deficient transferrin (CDT), anti-thrombin III (ATIII), liver enzymes (ALT, AST), and complete blood count (CBC) were performed. Modified Brief Ataxia Rating Scale was used to assess ataxia in the 2 patients (P5, P6; P7 was not eligible for the test due to age). The modified BARS scale included Archimedes spiral test, but not the abnormalities of the ocular pursuit system and the scale range was 0-54. Goal attainment scale (GAS) was administered as described per study protocol (ClinicalTrials.gov Identifier: NCT04199000).”
# PMM2-CDG patients [4] = test: Modified Brief Ataxia Rating Scale (BARS) in patients on epalrestat; assay type: in vivo, human
# Text: as §1, §2
# aldose reductase (AR) = settings: role: inhibitor; cited from earlier work
# [5] = 20 μM daily (printed 20 M), pmm2 mutant
compound,measurement,setting,value
CC(/C=C1\SC(=S)N(CC(=O)O)C1=O)=C\c1ccccc1 [epalrestat],Total NPCRS (max 78),"PMM2-CDG patients [1]; P5, 12 months, 1.5 mg/kg day, baseline 24",20
same,Total NPCRS (max 78),"PMM2-CDG patients [1]; P5, 24 months, 2 mg/kg day, baseline 24",18
same,Total NPCRS (max 78),"PMM2-CDG patients [1]; P5, 28 months, 3 mg/kg day, baseline 24",18
same,Phenotype severity (NPCRS),"PMM2-CDG patients [1]; P5, P7 improved, words",improvement was noted in 2 out of 3 patients
same,Total NPCRS (max 78),"PMM2-CDG patients [1]; P6, 12 months, 1.5 mg/kg day, baseline 19",19
same,Total NPCRS (max 78),"PMM2-CDG patients [1]; P6, 18 months, 3 mg/kg day, baseline 19",18
same,Total NPCRS (max 78),"PMM2-CDG patients [1]; P7, 12 months, 1.5 mg/kg day, baseline 18",15
same,glycosylation in vivo,PMM2-CDG,improved glycosylation
same,swimming behavior,"pmm2 mutant zebrafish; 10 μM daily, wt and pmm2 mutant",no improvement in swimming behavior
same,distance swam,pmm2 mutant zebrafish; [5],increased
same,number of swim events initiated,pmm2 mutant zebrafish; [5],significantly increased
same,swimming distance at 6 dpf and 7 dpf,"pmm2 mutant zebrafish; 20 μM daily, pmm2 zebrafish, wt n=42-46, pmm2 n=22-51",significantly increased
same,NADP abundance,[2],decreased
same,NADPH abundance,[2],increased
same,NADPH/NADP ratio,"[2]; PMM2-CDG n=3, control n=2",increased
same,AT III,"PMM2-CDG patients [3]; P5, 12 months, 1.5 mg/kg day, baseline 0.88",0.99 IU/mL
same,AT III,"PMM2-CDG patients [3]; P5, 24 months, 2 mg/kg day, baseline 0.88",0.97 IU/mL
same,coagulation parameters (ATIII),"PMM2-CDG patients [3]; P5-P7, words",improvement
same,AT III,"PMM2-CDG patients [3]; P6, 18 months, 3 mg/kg day, baseline 0.25",0.39 IU/mL
same,AT III,"PMM2-CDG patients [3]; P7, 12 months, 1.5 mg/kg day, baseline 0.21",0.37 IU/mL
same,Modified BARS (max 54),"PMM2-CDG patients [4]; P5, 12 months, 1.5 mg/kg day, baseline 39",29
same,Modified BARS (max 54),"PMM2-CDG patients [4]; P5, 24 months, 2 mg/kg day, baseline 39",33
same,Modified BARS (max 54),"PMM2-CDG patients [4]; P5, 28 months, 3 mg/kg day, baseline 39",30
same,ataxia (modified BARS scores),"PMM2-CDG patients [4]; P5, P6, words",improvement in ataxia
same,Modified BARS (max 54),"PMM2-CDG patients [4]; P6, 12 months, 1.5 mg/kg day, baseline 45",29
same,Modified BARS (max 54),"PMM2-CDG patients [4]; P6, 18 months, 3 mg/kg day, baseline 45",27
same,mode of inhibition of AR,aldose reductase (AR),non-competitive inhibitor
